Assays:
Format in all cases: functional
Human gammaherpesvirus 4 [1] = experiment: In vitro assay for EBV activation in Raji cells induced by 12-O-tetradecanoylphorbol-13-acetate (TPA) at the concentration of 100 (mol ratio / 32 pmol TPA)
Human gammaherpesvirus 4 [2] = experiment: Tested for % viability of Rajii cells, in an in vitro assay for TPA-induced EBV activation at concentration of 10 (mol ratio / 32 pmol TPA)
Human gammaherpesvirus 4 [3] = experiment: Tested for % viability of Rajii cells, in an in vitro assay for TPA-induced EBV activation at concentration of 500 (mol ratio / 32 pmol TPA)
Human gammaherpesvirus 4 [4] = experiment: In vitro assay for EBV activation in Raji cells induced by 12-O-tetradecanoylphorbol-13-acetate (TPA) at the concentration of 500 (mol ratio / 32 pmol TPA); (%Viability=>80)
Human gammaherpesvirus 4 [5] = experiment: Tested for % viability of Rajii cells, in an in vitro assay for TPA-induced EBV activation at concentration of 1000 (mol ratio / 32 pmol TPA)
Human gammaherpesvirus 4 [6] = experiment: In vitro assay for EBV activation in Raji cells induced by 12-O-tetradecanoylphorbol-13-acetate (TPA) at the concentration of 10 (mol ratio / 32 pmol TPA)
Human gammaherpesvirus 4 [7] = experiment: Tested for % viability of Rajii cells, in an in vitro assay for TPA-induced EBV activation at concentration of 100 (mol ratio / 32 pmol TPA)
Human gammaherpesvirus 4 [8] = experiment: In vitro assay for EBV activation in Raji cells induced by 12-O-tetradecanoylphorbol-13-acetate (TPA) at the concentration of 1000 (mol ratio / 32 pmol TPA)

| SMILES | Activation (Human gammaherpesvirus 4 [1]) | Viability (Human gammaherpesvirus 4 [2]) | Viability (Human gammaherpesvirus 4 [3]) | Activation (Human gammaherpesvirus 4 [4]) | Viability (Human gammaherpesvirus 4 [5]) | Activation (Human gammaherpesvirus 4 [6]) | Viability (Human gammaherpesvirus 4 [7]) | Activation (Human gammaherpesvirus 4 [8]) |
| --- | --- | --- | --- | --- | --- | --- | --- | --- |
| CCCC(=O)O[C@@H]1Cc2c(O)cc(O)cc2O[C@@H]1c1cc(O)c(O)c(O)c1 | >65.1% | >80% | >80% | >33.8% | 60% | >94.5% | >80% | 13.3% |
| CCCCCC(=O)O[C@@H]1Cc2c(O)cc(O)cc2O[C@@H]1c1cc(O)c(O)c(O)c1 | >62.4% | >80% | >80% | >30.8% | 60% | >93.5% | >80% | 12% |
| O=C(Cc1ccccc1)O[C@@H]1Cc2c(O)cc(O)cc2O[C@@H]1c1cc(O)c(O)c(O)c1 | >67.8% | >80% | >80% | >37.9% | 60% | >96.3% | >80% | 15.4% |
| CCc1ccc(C(=O)O[C@@H]2Cc3c(O)cc(O)cc3O[C@@H]2c2cc(O)c(O)c(O)c2)cc1 | >64.3% | >80% | >80% | >35.4% | 60% | >93.4% | >80% | 13.2% |
| CCCCCCC(C)C(=O)O[C@@H]1Cc2c(O)cc(O)cc2O[C@@H]1c1cc(O)c(O)c(O)c1 (stereo partly specified) | >54.1% | >80% | >80% | >15.3% | 60% | >87.5% | >80% | 5% |
| O=C(CCc1ccccc1)O[C@@H]1Cc2c(O)cc(O)cc2O[C@@H]1c1cc(O)c(O)c(O)c1 | >68.4% | >80% | >80% | >39% | 60% | >96.5% | >80% | 17.8% |
| CCCCCCCCC(C)C(=O)O[C@@H]1Cc2c(O)cc(O)cc2O[C@@H]1c1cc(O)c(O)c(O)c1 (stereo partly specified) | >58.3% | >80% | >80% | >20.1% | 60% | >88.9% | >80% | 7.9% |
| CCCCCCCCCCCCCCCC(=O)O[C@@H]1Cc2c(O)cc(O)cc2O[C@@H]1c1cc(O)c(O)c(O)c1 | >74.3% | >80% | >80% | >41.6% | 60% | >100% | >80% | 22.7% |
| Cc1ccc(CC(=O)O[C@@H]2Cc3c(O)cc(O)cc3O[C@@H]2c2cc(O)c(O)c(O)c2)cc1 | >65.9% | >80% | >80% | >35.3% | 60% | >95.4% | >80% | 14% |
| CCCCCCCC(=O)O[C@@H]1Cc2c(O)cc(O)cc2O[C@@H]1c1cc(O)c(O)c(O)c1 | >56% | >80% | >80% | >19.3% | 60% | >89.2% | >80% | 6.5% |
| CCCCCCCCCCCCCC(=O)O[C@@H]1Cc2c(O)cc(O)cc2O[C@@H]1c1cc(O)c(O)c(O)c1 | >68.4% | >80% | >80% | >35.2% | 60% | >100% | >80% | 18.3% |
| CCCCCCCCCCCCCCCCCC(=O)O[C@@H]1Cc2c(O)cc(O)cc2O[C@@H]1c1cc(O)c(O)c(O)c1 | >86.9% | >80% | >80% | >64% | 60% | >100% | >80% | 31.5% |
| CCCCCCCCCC(=O)O[C@@H]1Cc2c(O)cc(O)cc2O[C@@H]1c1cc(O)c(O)c(O)c1 | >61.4% | >80% | >80% | >22.7% | 60% | >91.9% | >80% | 9.3% |
| CCCCCCCCCCCC(=O)O[C@@H]1Cc2c(O)cc(O)cc2O[C@@H]1c1cc(O)c(O)c(O)c1 | >65.8% | >80% | >80% | >31.9% | 60% | >94.2% | >80% | 12.7% |
| Cc1ccc(C(=O)O[C@@H]2Cc3c(O)cc(O)cc3O[C@@H]2c2cc(O)c(O)c(O)c2)cc1 | >62.8% | >80% | >80% | >33% | 60% | >91.7% | >80% | 10.4% |
| Oc1cc(O)c2c(c1)O[C@H](c1cc(O)c(O)c(O)c1)[C@H](O)C2 [EPIGALLOCATECHIN] | >73% | >80% | >80% | >44.9% | 60% | >100% | >80% | 19.3% |
| O=C(O[C@@H]1Cc2c(O)cc(O)cc2O[C@@H]1c1cc(O)c(O)c(O)c1)c1cc(O)c(O)c(O)c1 [EPIGALOCATECHIN GALLATE] | >69% | >80% | >80% | >35% | 60% | >95.9% | >80% | 15.5% |
